Assay results reported in patent publication US7977332B2, “Insecticidal N-(heteroarylalkyl)alkanediamine derivatives” (FMC Corporation, priority 2003, dated 2011).

Each molecule was assayed on tobacco budworm (Heliothis virescens [Fabricius]) (assay: surface-treated diet test against tobacco budworm). Conditions: 0.25 millimolar on the surface of the diet; second instar larvae; five-day exposure.
Type: in vivo
Procedure: Candidate insecticides were evaluated for activity against the tobacco budworm (Heliothis virescens [Fabricius]) in a surface-treated diet test.
In this test one mL of molten (65-70° C.) wheat germ-based artificial diet was pipetted into each well of a four by six (24 well) multi-well plate (ID# 430345-15.5 mm dia.×17.6 mm deep; Corning Costar Corp., One Alewife Center, Cambridge, Mass. 02140). The diet was allowed to cool to ambient temperature before treatment with candidate insecticide.
For a determination of insecticidal activity, solutions of the candidate insecticides were prepared for testing using a Packard 204DT Multiprobe® Robotic System (Packard Instrument Company, 800 Research Parkway, Meriden, Conn. 06450), in which the robot first diluted a standard 50 millimolar DMSO solution of candidate insecticide with a 1:1 water/acetone solution (V/V) in a ratio of 1:7 stock solution to water/acetone. The robot subsequently pipetted 40 microliters of the so-prepared solution onto the surface of the diet in each of three wells in the 24 multi-well plate. The process was repeated with solutions of seven other candidate insecticides. Once treated, the contents of the multi-well plate were allowed to dry, leaving 0.25 millimoles of candidate insecticide on the surface of the diet, or a concentration of 0.25 millimolar. Appropriate untreated controls containing only DMSO on the diet surface were also included in this test.
For evaluations of the insecticidal activity of a candidate insecticide at varying rates of application, the test was established as described above using sub-multiples of the standard 50 millimolar DMSO solution of candidate insecticide. For example, the standard 50 millimolar solution was diluted by the robot with DMSO to give 5, 0.5, 0.05, 0.005, 0.0005 millimolar, or more dilute solutions of the candidate insecticide. In these evaluations there were six replicates of each rate of application placed on the surface of the diet in the 24 multi-well plate, for a total of four rates of application of candidate insecticide in each plate.
In each well of the test plate was placed one second instar tobacco budworm larvea, each weighing approximately five milligrams. After the larvae were placed in each well, the plate was sealed with clear polyfilm adhesive tape. The tape over each well was perforated to ensure an adequate air supply. The plates were then held in a growth chamber at 25° C. and 60% relative humidity for five days (light 14 hours/day).
After the five-day exposure period insecticidal activity for each rate of application of candidate insecticide was assessed as percent inhibition of insect weight relative to the weight of insects from untreated controls, and percent mortality when compared to the total number of insects infested.
The test compounds of formula I are identified by numbers that correspond to those in Table 1.

| Structure (SMILES) | Percent Mortality |
| --- | --- |
| CSC(=C[N+](=O)[O-])NCCN(CCC(F)(F)F)Cc1ccc(Cl)nc1 [Compound 3] | 50% |
| CSC(=C[N+](=O)[O-])NCCN(CC#N)Cc1ccc(Cl)nc1 [Compound 10] | 17% |
| C=CCN(CCNC(=C[N+](=O)[O-])OC)Cc1ccc(Cl)nc1 [Compound 242] | 83% |
| C#CCN(CCN/C(=C/[N+](=O)[O-])OC)Cc1ccc(Cl)nc1 [Compound 244] | 83% |
| C#CCN(CCNC(=C[N+](=O)[O-])SC)Cc1ccc(Cl)nc1 [Compound 248, {2-[((1Z)-1-methylthio-2-nitrovinyl)amino]ethyl}[(6-chloro(3-pyridyl)methyl]prop-2-ynylamine] | 100% |

Same assay, conditions: 0.25 millimolar on the surface of the diet; second instar larvae; five-day exposure; insect weight relative to untreated controls

| Structure (SMILES) | Percent Growth Inhibition |
| --- | --- |
| COC(=C[N+](=O)[O-])NCCN(CCCF)Cc1ccc(Cl)nc1 [Compound 1] | 100% |
| CSC(=C[N+](=O)[O-])NCCN(CCCF)Cc1ccc(Cl)nc1 [Compound 2] | 100% |
| CSC(=C[N+](=O)[O-])NCCN(CCC(F)(F)F)Cc1ccc(Cl)nc1 [Compound 3] | 96% |
| COCCN(CCNC(=C[N+](=O)[O-])SC)Cc1ccc(Cl)nc1 [Compound 4] | 100% |
| CCOCCN(CCNC(=C[N+](=O)[O-])SC)Cc1ccc(Cl)nc1 [Compound 5] | 100% |
| COCCOCCN(CCNC(=C[N+](=O)[O-])OC)Cc1ccc(Cl)nc1 [Compound 6] | 95% |
| COCCOCCN(CCNC(=C[N+](=O)[O-])SC)Cc1ccc(Cl)nc1 [Compound 7] | 99% |
| COCCOCCN(CCNC(=C[N+](=O)[O-])OCCOC)Cc1ccc(Cl)nc1 [Compound 8] | 100% |
| CSC(=C[N+](=O)[O-])NCCN(O)Cc1ccc(Cl)nc1 [Compound 9] | 91% |
| CSC(=C[N+](=O)[O-])NCCN(CC#N)Cc1ccc(Cl)nc1 [Compound 10] | 90% |
| CSC(=C[N+](=O)[O-])NCCN(Cc1ccc(Cl)nc1)CC1CCOC1 (stereo not drawn) [Compound 14] | 100% |
| CSC(=C[N+](=O)[O-])NCCN(Cc1ccc(Cl)nc1)CC1CCCCO1 (stereo not drawn) [Compound 15] | 85% |
| CSC(=C[N+](=O)[O-])NCCN(Cc1ccc(Cl)nc1)Cc1ccsc1 [Compound 17] | 99% |
| CSC(=C[N+](=O)[O-])NCCN(Cc1ccc(Cl)nc1)Cc1ccco1 [Compound 18] | 100% |
| CSC(=C[N+](=O)[O-])NCCN(Cc1ccc(Cl)nc1)Cc1ccoc1 [Compound 19] | 100% |
| CCN(CCNC(=C[N+](=O)[O-])OC)Cc1ccc(Cl)nc1 [Compound 41] | 100% |
| COC(=C[N+](=O)[O-])NCCN(Cc1ccc(Cl)nc1)Cc1ccc(Cl)nc1 [Compound 187] | 50% |
| CC(C)COC(=C[N+](=O)[O-])NCCN(Cc1ccc(Cl)nc1)Cc1ccc(Cl)nc1 [Compound 189] | 100% |
| O=[N+]([O-])C=C(NCCN(Cc1ccc(Cl)nc1)Cc1ccc(Cl)nc1)OCC1CCCCC1 [Compound 190] | 100% |
| CSC(=C[N+](=O)[O-])NCCN(Cc1cccnc1)Cc1ccc(Cl)nc1 [Compound 192] | 92% |
| CSC(=C[N+](=O)[O-])NCCN(Cc1ccc(Cl)nc1)Cc1ccc(Cl)nc1 [Compound 198] | 50% |

| Structure (SMILES) | Percent Growth Inhibition |
| --- | --- |
| CC(C)CSC(=C[N+](=O)[O-])NCCN(Cc1ccc(Cl)nc1)Cc1ccc(Cl)nc1 [Compound 202] | 100% |
| O=[N+]([O-])C=C(NCCN(Cc1ccc(Cl)nc1)Cc1ccc(Cl)nc1)SCC1CCCCC1 [Compound 203] | 100% |
| C=CCN(CCNC(=C[N+](=O)[O-])SC)Cc1ccc(Cl)nc1 [Compound 220] | 100% |
| C=CCN(CCNC(=C[N+](=O)[O-])SCC1CCCCC1)Cc1ccc(Cl)nc1 [Compound 221] | 100% |
| C=CCCN(CCNC(=C[N+](=O)[O-])SC)Cc1ccc(Cl)nc1 [Compound 222] | 100% |
| CC=CCN(CCNC(=C[N+](=O)[O-])SC)Cc1ccc(Cl)nc1 [Compound 223] | 98% |
| CSC(=C[N+](=O)[O-])NCCN(CC=CCl)Cc1ccc(Cl)nc1 [Compound 224] | 100% |
| C=C(Cl)CN(CCNC(=C[N+](=O)[O-])SC)Cc1ccc(Cl)nc1 [Compound 225] | 89% |
| CSC(=C[N+](=O)[O-])NCCN(CC=C(Cl)Cl)Cc1ccc(Cl)nc1 [Compound 228] | 100% |
| CSC(=C[N+](=O)[O-])NCCN(CCC(F)=C(F)F)Cc1ccc(Cl)nc1 [Compound 229] | 96% |
| CSC(=C[N+](=O)[O-])NCCN(CC=Cc1ccccc1)Cc1ccc(Cl)nc1 [Compound 230] | 88% |
| C=CCN(CCNC(=N[N+](=O)[O-])SC)Cc1ccc(Cl)nc1 [Compound 231] | 100% |
| C=CCN(CCNC(=C[N+](=O)[O-])OC)Cc1ccc(Cl)nc1 [Compound 242] | 96% |
| C#CCN(CCN/C(=C/[N+](=O)[O-])OC)Cc1ccc(Cl)nc1 [Compound 244] | 100% |
| C#CCN(CCNC(=C[N+](=O)[O-])OCC)Cc1ccc(Cl)nc1 [Compound 245] | 100% |
| C#CCN(CCNC(=C[N+](=O)[O-])OCCOC)Cc1ccc(Cl)nc1 [Compound 246] | 100% |
| C#CCN(CCNC(=C[N+](=O)[O-])OCCOCCOC)Cc1ccc(Cl)nc1 [Compound 247] | 100% |
| C#CCN(CCNC(=C[N+](=O)[O-])SC)Cc1ccc(Cl)nc1 [Compound 248, {2-[((1Z)-1-methylthio-2-nitrovinyl)amino]ethyl}[(6-chloro(3-pyridyl)methyl]prop-2-ynylamine] | 100% |
| C#CCCN(CCNC(=C[N+](=O)[O-])SC)Cc1ccc(Cl)nc1 [Compound 252] | 100% |
| CC#CCN(CCNC(=C[N+](=O)[O-])SC)Cc1ccc(Cl)nc1 [Compound 253] | 100% |
| CC#CCCN(CCNC(=C[N+](=O)[O-])SC)Cc1ccc(Cl)nc1 [Compound 254] | 100% |

| Structure (SMILES) | Percent Growth Inhibition |
| --- | --- |
| CCCCCC#CCN(CCNC(=C[N+](=O)[O-])SC)Cc1ccc(Cl)nc1 [Compound 255] | 88% |
| C#CCN(CCNC(=C[N+](=O)[O-])OCC1CCCCC1)Cc1ccc(Cl)nc1 [Compound 256] | 100% |
| C#CCN(CCNC(=C[N+](=O)[O-])SCC1CCCCC1)Cc1ccc(Cl)nc1 [Compound 257] | 100% |
| C#CCCN(CCNC(=C[N+](=O)[O-])SCC1CCCCC1)Cc1ccc(Cl)nc1 [Compound 258] | 100% |
| C#CCN(CCNC(=N[N+](=O)[O-])SC)Cc1ccc(Cl)nc1 [Compound 279] | 100% |
| CSC(=C[N+](=O)[O-])NCCN(CCC#Cc1ccc(Cl)cc1)Cc1ccc(Cl)nc1 [Compound 301] | 100% |
| CSC(=C[N+](=O)[O-])NCCN(CC#Cc1ccc(F)cc1)Cc1ccc(Cl)nc1 [Compound 302] | 97% |
| CSC(=C[N+](=O)[O-])NCCN(CC#Cc1cncnc1)Cc1ccc(Cl)nc1 [Compound 304] | 61% |
| O=[N+]([O-])C=C(NCCN(Cc1ccccc1)Cc1ccc(Cl)nc1)SCc1ccc(C(F)(F)F)cc1 [Compound 307] | 100% |
| COc1ccc(CN(CCNC(=N[N+](=O)[O-])SCc2ccccc2)Cc2ccc(Cl)nc2)cc1 [Compound 310] | 100% |
| COc1ccc(CN(CCNC(=N[N+](=O)[O-])SCc2ccc(Cl)cc2)Cc2ccc(Cl)nc2)cc1 [Compound 311] | 100% |
| O=[N+]([O-])C=C(NCCN(Cc1ccc(Cl)nc1)Cc1ccc(Cl)nc1)SCc1ccccc1Cl [Compound 314] | 100% |
| O=[N+]([O-])C=C(NCCN(Cc1ccc(Cl)nc1)Cc1ccc(Cl)nc1)SCc1cccc(Cl)c1 [Compound 315] | 98% |
| O=[N+]([O-])C=C(NCCN(Cc1ccc(Cl)nc1)Cc1ccc(Cl)nc1)SCc1c(F)c(F)c(F)c(F)c1F [Compound 318] | 100% |
| Cc1ccccc1CSC(=C[N+](=O)[O-])NCCN(Cc1ccc(Cl)nc1)Cc1ccc(Cl)nc1 [Compound 319] | 10% |
| Cc1cccc(CSC(=C[N+](=O)[O-])NCCN(Cc2ccc(Cl)nc2)Cc2ccc(Cl)nc2)c1 [Compound 320] | 96% |
| Cc1ccc(CSC(=C[N+](=O)[O-])NCCN(Cc2ccc(Cl)nc2)Cc2ccc(Cl)nc2)cc1 [Compound 321] | 100% |
| O=[N+]([O-])C=C(NCCN(Cc1ccc(Cl)nc1)Cc1ccc(Cl)nc1)SCc1ccccc1C(F)(F)F [Compound 322] | 100% |
| O=[N+]([O-])C=C(NCCN(Cc1ccc(Cl)nc1)Cc1ccc(Cl)nc1)SCc1cccc(C(F)(F)F)c1 [Compound 323] | 100% |
